# Results taken from ChEMBL document CHEMBL1155243, “In vitro erythrocytic uptake studies of artemisinin and selected derivatives using LC-MS and 2D-QSAR analysis of uptake in parasitized erythrocytes” (Bioorg Med Chem, 2009).
# Legend:
# Conditions in all cases: erythrocyte
# [1] = Toxicity in human type-A RBC assessed as hematocrit at 3.55 uM after 2 hrs; type: cell-based
# [2] = Drug uptake in human type-A RBC at 3.55 uM after 2 hrs by LC-MS analysis; type: ADME, cell-based
# [3] = Drug uptake in human type-A erythrocytes infected with Plasmodium falciparum D6 at 3.55 uM after 2 hrs by LC-MS analysis; type: ADME, cell-based
structure (smiles),measurement,setting,value
C[C@@H]1CC[C@H]2[C@@H](CCCc3ccc(S(C)(=O)=O)cc3)C(=O)O[C@@H]3O[C@]4(C)CC[C@@H]1[C@]32OO4,Activity,[1],33%
same,Drug uptake,[2],38.53%
same,Drug uptake,[3],61.9%
C[C@@H]1CC[C@H]2CC(=O)O[C@@H]3O[C@]4(CCc5ccccc5)CC[C@@H]1[C@@]23OO4,Activity,[1],33%
same,Drug uptake,[2],38.96%
same,Drug uptake,[3],62.34%
C[C@@H]1CC[C@H]2[C@@H](CCCc3cc(F)cc(F)c3)CO[C@@H]3O[C@]4(C)CC[C@@H]1[C@]32OO4,Activity,[1],33%
same,Drug uptake,[2],40.01%
same,Drug uptake,[3],70.91%
C[C@@H]1CC[C@H]2CC(=O)N(CCc3ccccc3)[C@@H]3O[C@]4(C)CC[C@@H]1[C@@]23OO4,Activity,[1],33%
same,Drug uptake,[2],38.43%
same,Drug uptake,[3],61.8%
C[C@@H]1[C@@H](OC(=O)NC2CC2c2ccccc2)C[C@H]2[C@@H](C)C(=O)O[C@@H]3O[C@]4(C)CC[C@@H]1[C@]32OO4 (some centres undefined),Activity,[1],33%
same,Drug uptake,[2],32.31%
same,Drug uptake,[3],51.63%
C[C@@H]1[C@@H](O)C[C@H]2[C@@H](C)C(=O)O[C@@H]3O[C@]4(C)CC[C@@H]1[C@]32OO4,Activity,[1],33%
same,Drug uptake,[2],33.1%
same,Drug uptake,[3],53.9%
C[C@@H]1[C@@H](OC(=O)Nc2cccc3ccccc23)C[C@H]2[C@@H](C)C(=O)O[C@@H]3O[C@]4(C)CC[C@@H]1[C@]32OO4,Activity,[1],33%
same,Drug uptake,[2],32.63%
same,Drug uptake,[3],51.68%
C[C@@H]1CC[C@H]2[C@@H](CCCc3cccc(Cl)c3)[C@H](O)O[C@@H]3O[C@]4(C)CC[C@@H]1[C@]32OO4,Activity,[1],33%
same,Drug uptake,[2],40.13%
same,Drug uptake,[3],71.21%
C[C@@H]1CC[C@H]2[C@@H](CN3C(=O)CCC3=O)C(=O)O[C@@H]3O[C@]4(C)CC[C@@H]1[C@]32OO4,Activity,[1],33%
same,Drug uptake,[2],36.57%
same,Drug uptake,[3],66.06%
C[C@@H]1CC[C@H]2[C@@H](CN3C(=O)CSC3=O)C(=O)O[C@@H]3O[C@]4(C)CC[C@@H]1[C@]32OO4,Activity,[1],33%
same,Drug uptake,[2],33.94%
same,Drug uptake,[3],57.69%
C[C@@H]1CC[C@H]2CC(=O)O[C@@H]3O[C@]4(CC(=O)O)CC[C@@H]1[C@@]23OO4,Activity,[1],33%
same,Drug uptake,[2],34.03%
same,Drug uptake,[3],54.51%
C[C@@H]1CC[C@H]2[C@@H](CCCc3cc(C(F)(F)F)cc(C(F)(F)F)c3)C(=O)O[C@@H]3O[C@]4(C)CC[C@@H]1[C@]32OO4,Activity,[1],33%
same,Drug uptake,[2],41.07%
same,Drug uptake,[3],72.09%
C[C@@H]1CC[C@H]2[C@@H](C)C(=O)O[C@@H]3O[C@@]4(C)CC[C@@H]1[C@]32OO4 [ARTEMISININ],Activity,[1],33%
same,Drug uptake,[2],34.68%
same,Drug uptake,[3],61.07%
CCCCCCCCCCCCCC[C@H]1C(=O)O[C@@H]2O[C@]3(C)CC[C@H]4[C@H](C)CC[C@@H]1[C@@]24O3,Activity,[1],33%
same,Drug uptake,[2],45.09%
same,Drug uptake,[3],73%
CCCC[C@H]1C(=O)O[C@@H]2O[C@]3(CC)CC[C@H]4[C@H](C)CC[C@@H]1[C@@]24OO3,Activity,[1],33%
same,Drug uptake,[2],39.11%
same,Drug uptake,[3],62.5%
CC(C)CN1C(=O)C[C@@H]2CC[C@@H](C)[C@@H]3CC[C@]4(C)OO[C@@]23[C@H]1O4,Activity,[1],33%
same,Drug uptake,[2],35.17%
same,Drug uptake,[3],61.51%
C[C@@H]1CC[C@H]2[C@@H](CCCc3ccc(N(C)C)cc3)C(=O)O[C@@H]3O[C@]4(C)CC[C@@H]1[C@]32OO4.Cl,Activity,[1],33%
same,Drug uptake,[2],32.82%
same,Drug uptake,[3],51.92%
C[C@@H]1CC[C@H]2[C@@H](CC(=O)O)C(=O)O[C@@H]3O[C@]4(C)CC[C@@H]1[C@]32OO4,Activity,[1],33%
same,Drug uptake,[2],33.92%
same,Drug uptake,[3],54.23%
C[C@@H]1[C@@H](OC(=O)Nc2ccccc2)C[C@H]2[C@@H](C)C(=O)O[C@@H]3O[C@]4(C)CC[C@@H]1[C@]32OO4,Activity,[1],33%
same,Drug uptake,[2],32.18%
same,Drug uptake,[3],51.04%
C[C@H]1C(=O)O[C@@H]2O[C@@]3(C)CC[C@@H]4[C@@]2(OO3)[C@H]1CC[C@]4(C)O,Activity,[1],33%
same,Drug uptake,[2],32.99%
same,Drug uptake,[3],53.89%
C[C@@H]1CC[C@H]2[C@@H](CCCc3cc(C(F)(F)F)cc(C(F)(F)F)c3)[C@H](O)O[C@@H]3O[C@]4(C)CC[C@@H]1[C@]32OO4,Activity,[1],33%
same,Drug uptake,[2],40.43%
same,Drug uptake,[3],71.76%
C[C@@H]1CC[C@H]2[C@@H](CCCc3cc(C(F)(F)F)cc(C(F)(F)F)c3)CO[C@@H]3O[C@]4(C)CC[C@@H]1[C@]32OO4,Activity,[1],33%
same,Drug uptake,[2],42.11%
same,Drug uptake,[3],72%
C[C@@H]1CC[C@H]2[C@@H](CCCc3ccc(O)cc3)C(=O)O[C@@H]3O[C@]4(C)CC[C@@H]1[C@]32OO4.Cl,Activity,[1],33%
same,Drug uptake,[2],39.01%
same,Drug uptake,[3],63.09%
